Experimental data published in US12459951B2, “Compounds that interact with RAS superfamily proteins for treatment of cancers, inflammatory diseases, rasopathies, and fibrotic disease” (SHY Therapeutics, LLC, priority 2022, dated 2025).

How the values were obtained:
Rheb = molecular target: T1, Rheb (Homo sapiens, UniProt Q15382); assay: Rheb GTP Binding Domain Inhibition Assay; settings: read-out: Rheb: % inh.
T1 construct: made in house
How it was run: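 His-tagged cdc42 or Rheb (10–30 μg/mL) bound to nickel plates, then exposed to compound (20 μM, or serial dilutions for IC50) in 1% DMSO for 3 h at room temperature, ±Sos during final hour. Cy3- or Cy5-GTP (100 nM) added for 45 min; bound labelled GTP read by fluorescence after washes.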

A375 (wild type Kras) = assay: Proliferation Assay (Cell Viability Assay); format: cell-based; settings: Homo sapiens, A-375; Proliferation assay, A375; read-out: A375 IC50 (nM) Melanoma
How it was run: (§1)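 Cells plated at 2000–5000/well overnight, then treated 2–4 days at 37 °C, 5% CO2 with compound at 10 μM single dose or serial dilutions for IC50, in 0.3% DMSO and 10% FBS. Viability read by CellTiter 96 Aqueous One (MTS); % proliferation inhibition calculated from raw data.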

[1] = tested on: BT-549 (expressing wild type KRAS); assay: Proliferation Assay (Cell Viability Assay); format: cell-based; settings: Homo sapiens, BT-549; Proliferation assay, BT549; read-out: BT549 IC50 (nM) TNBC
How it was run: as §1

[2] = tested on: NCI-H358 (expressing KRas G12C mutant); assay: Proliferation Assay (Cell Viability Assay); format: cell-based; settings: Homo sapiens; Proliferation assay, NCI-H358; read-out: NCI-H358 IC50 (nM) NSCLC
How it was run: as §1

[3] = Kinetic Solubility Assay in pH 7.4 Buffer + 2% DMSO; format: physicochemical; settings: phosphate-buffered saline pH 7.4 with 2% DMSO, aqueous buffer, kinetic from dmso stock, 25° C., two hours
How it was run: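 Compound from 20 mM DMSO stock diluted to nominal 400 μM in PBS pH 7.4 with 2% DMSO, in duplicate, shaken 2 h at 25° C., then filtered. Filtrate quantified by UV absorbance (230-550 nm) against 10-200 μM calibration curves; effective range ~2-400 μM.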

T1 sequence (Q15382 whole entry, the tested form may be a part): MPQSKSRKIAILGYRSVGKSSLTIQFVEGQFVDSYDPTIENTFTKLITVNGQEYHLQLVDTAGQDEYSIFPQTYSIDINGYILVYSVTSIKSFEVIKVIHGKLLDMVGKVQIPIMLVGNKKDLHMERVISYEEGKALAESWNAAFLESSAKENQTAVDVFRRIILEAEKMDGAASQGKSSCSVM

Cc1c(-c2ccn(C(C)C)n2)cn2nc(-c3nccn3C)nc(Nc3noc(C4CC4)n3)c12 [Compound 75, 5-Cyclopropyl-N-(6-(1-isopropyl-1H-pyrazol-3-yl)-5-methyl-2-(1-methyl-1H-imidazol-2-yl)pyrrolo[2,1-f][1,2,4]triazin-4-yl)-1,2,4-oxadiazol-3-amine]
inhibition at 20 µM (Rheb): 1 to 25%

COCCO[C@H]1C[C@H](Nc2nc(-c3nccn3C)nn3cc(-c4ccn(C(C)C)n4)c(C)c23)C1 [Compound 92, 6-(1-Isopropyl-1H-pyrazol-3-yl)-N-((1r,3r)-3-(2-methoxyethoxy)cyclobutyl)-5-methyl-2-(1-methyl-1H-imidazol-2-yl)pyrrolo[2,1-f][1,2,4]triazin-4-amine]
inhibition at 20 µM (Rheb): 0%

COc1cccc(-c2cn3nc(-c4nccn4C)nc(N[C@@H]4CC[C@@H](OC)C4)c3c2-c2ccccc2)c1Cl.Cl (racemic) [Compound 34, rac 6-(2-Chloro-3-methoxyphenyl)-N-((1R,3R)-3-methoxycyclopentyl)-2-(1-methyl-1H-imidazol-2-yl)-5-phenylpyrrolo[2,1-f][1,2,4]triazin-4-amine hydrochloride]
inhibition at 20 µM (Rheb): 26 to 49%

Cc1c(-c2ccn(C(C)C)n2)cn2nc(-c3nccn3C)nc(Nc3ccn(C4CC4)n3)c12 [Compound 84, N-(1-Cyclopropyl-1H-pyrazol-3-yl)-6-(1-isopropyl-1H-pyrazol-3-yl)-5-methyl-2-(1-methyl-1H-imidazol-2-yl)pyrrolo[2,1-f][1,2,4]triazin-4-amine]
IC50 (A375 (wild type Kras)): 1 to 10 nM
IC50 [1]: 1 to 10 nM
IC50 [2]: 1 to 10 nM
solubility at 2 h [3]: 10 to 30 µM

Cc1c(-c2ccn(C(C)C)n2)cn2nc(-c3nccn3C)nc(Nc3cc4n(n3)CCO4)c12 [Compound 91, N-(6-(1-Isopropyl-1H-pyrazol-3-yl)-5-methyl-2-(1-methyl-1H-imidazol-2-yl)pyrrolo[2,1-f][1,2,4]triazin-4-yl)-2,3-dihydropyrazolo[5,1-b]oxazol-6-amine]
IC50 (A375 (wild type Kras)): 1 to 10 nM
IC50 [1]: 1 to 10 nM
IC50 [2]: 1 to 10 nM
solubility at 2 h [3]: > 30 µM
